Data reported in patent US11730731B2 (INVENTAGE LAB INC., priority 2021, dated 2023).

What was measured:
[1] = system: inflammatory mediators in arthritis tissue (IL-1β, IL-6, IL-17, TNF-α, MCP-1, MIP-2, IL-2); assay: Multiplex protein immunoassay (Luminex multi-analyte-ELISA) of inflammatory mediators in arthritic tissue; type: in vivo, mouse; conditions: for ELISA values in Arthritis Paw, IL-1β, Mean / ELISA values in Arthritis Paw, IL-6, Mean / ELISA values in Arthritis Paw, IL-17, Mean / ELISA values in Arthritis Paw, TNF-α, Mean: CIA mice, Example 3, positive control groups (MTX, Xeljanz); for MCP-1, ELISA values in Arthritis Paw (pg/mL) Mean / MIP-2, ELISA values in Arthritis Paw (pg/mL) Mean: MTX 1 mg/kg ip twice/week, MTX 1 mg/kg + Q-DDS 3 mg/mouse
Text: In order to evaluate the inflammatory activity and confirm the mode of action of the test substance through quantitative analysis of inflammatory substances in mouse arthritis tissue and blood, inflammatory mediators were investigated at the protein level. In order to overcome the limitation of the amount of sample that can be extracted for protein analysis, a multi-analyte-ELISA (multi-analyte-ELISA) method based on Luminex technology was used to analyze the largest amount of protein in a small sample.
(§1) The mouse joint tissue obtained after treatment with the test substance in the method of Example 3.1 was pulverized through ceramic beads, and all proteins were extracted using a lysis buffer (Cat. 1713040111, Bio-Rad). Using Pro-reagent kit V, the same amount of protein (2.7 mg/mL) for each administration group was diluted ¼ and reacted with the target-binding beads in a culture dish for 30 minutes. After washing with a wash buffer, it was reacted with the target-measurement antibody for 30 minutes, and after washing with a wash buffer again, it was reacted with streptavidin-PE for 10 minutes. Thereafter, the target protein is quantitatively measured for each administration group using the Bio-Plex® 200 system (Bio-Rad). The target-binding beads were composed of a set that can be combined as needed from Bio-Plex Mouse cytokine 4-plex (IL-1β, IL-6, IL-17A, TNF-α; Cat. 171G5002M), Bio-Plex Pro Mouse Cytokine 1-plex (MCP1; Cat. 171G5019M), Bio-Plex Pro Mouse Cytokine II 1-plex (MIP2; Cat 171G6006M), and Bio-Plex Pro Mouse Cytokine 1-plea (IL-6; Cat. 171 G5007M) (all products are from Bio Rad) and were used for measurement.
For the measurement result, paw tissue weight of the mouse was corrected for the quantified target protein. For each target joint, the hind paw was mainly used, and in order to overcome the limitation of the amount of protein extracted from the joint tissue, up to 4 inflammatory mediators were measured in one well.
On the other hand, as the target protein to be measured, a representative inflammation-promoting cytokine group A (IL-1β, IL-6, IL-17, and TNF-α) among inflammatory mediators, and a chemokine group B (MCP-1 and MIP-2) among inflammatory mediators was selected to carry out the experiment. The measurement results were summarized in FIGS. 12A and 12B, and Tables 19 and 20 below. […]
as §1, with “4.1. above” for “3.1”, “171 G5002M),” for “171G5002M),”, “Cat. 171 G6006M),” for “Cat 171G6006M),”, “1-plex” for “1-plea”, “171G5007M)” for “171 G5007M)”
On the other hand, as the target protein to be measured, a representative inflammation-promoting cytokine group A (IL-1β, IL-6, IL-17, and TNF-α) among inflammatory mediators, and IL-2 and a chemokine group B (IL-2, MCP-1 and MIP-2) among inflammatory mediators were selected to carry out the experiment. The measurement results were summarized in FIGS. 18A and 18B, and Tables 29 and 30 below.

[2] = system: IL-6; assay: Multiplex protein immunoassay of IL-6 in serum of CIA mice; type: in vivo, mouse; conditions: Example 3, positive control groups (MTX, Xeljanz)
Method: For the measurement result, paw tissue weight of the mouse was corrected for the quantified amount of IL-6 protein. For each target joint, the hind paw was mainly used, and in order to overcome the limitation of the amount of protein extracted from the joint tissue, up to 4 inflammatory mediators were measured in one well. […]

[3] = system: MAPKs (ERK, JNK, p38); assay: Western blotting of MAPKs activity in LPS-treated SW982 cells; type: cell-based, human
Method: Western blotting was performed in the same manner as in Example 6.3. The first antibody used at this time is an antibody against p-ERK, ERK, p-JNK, JNK, p-p38, p38 and calnexin (Cell signaling, CA, USA), and the secondary antibody is anti-mouse or anti-rabbit HRP-binding secondary antibody.
1× Cell lysis buffer (Cell signaling, CA, USA) was mixed with protease and a phosphatase inhibitor and added to SW982 cells. After extracting the protein from the cells, the concentration was measured, and the same amount of protein was developed on an SDS-polyacrylamide gel, and transferred to an ECL nitrocellulose membrane (Amersham Pharmacia Biotech, Inc., Piscataway, N.J., USA) and blocked with nonfat dried milk for 1 hour. Thereafter, the reaction was performed with the first antibody (p65 NF-κB, phospho p65 NF-κB, p-ERK, ERK, p-JNK, JNK, p-p38, p38 or calnexin; Cell signaling, CA, USA), while shaking at 4° C. for 24 hours. Then, after shaking and washing 3 times for 10 minutes with PBST buffer, the secondary antibody was incubated with anti-mouse or anti-rabbit HRP-conjugated secondary antibody for 1 hour at room temperature, and reacted with the protein band on the membrane using Supersignal west pico ECL solution (Thermo Fisher Scientific Inc.). The results were visualized with the Bio-Rad Gel Documentation system (Bio-Rad Laboratories, Hercules, Calif., USA), and the results are shown in FIG. 35.

[4] = system: pro-inflammatory cytokines (TNF-α, IL-1β, IL-6, IL-17, iNOS) in SW982 cells; assay: RT-qPCR of LPS-induced pro-inflammatory cytokine expression in SW982 cells; conditions: 6 hours
Text: Lipopolysaccharide (LPS) was purchased from Sigma-Aldrich (St. Louis, Mo., USA).

[5] = target: T1, MD2 protein (Homo sapiens, UniProt Q9Y6Y9); assay: Surface plasmon resonance analysis of binding to MD2; conditions: binding gradually increased as the concentration of naltrexone increased
T1 construct: purchased R&D systems (Minneapolis, Minn., USA)
T1 sequence (Q9Y6Y9 19-160): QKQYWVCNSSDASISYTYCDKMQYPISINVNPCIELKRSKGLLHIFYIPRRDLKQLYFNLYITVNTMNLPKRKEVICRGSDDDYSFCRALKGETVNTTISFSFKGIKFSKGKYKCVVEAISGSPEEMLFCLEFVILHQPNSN

[6] = system: p65 NF-κB; assay: Western blotting of NF-κB activity in LPS-treated Raw 264.7 cells; type: cell-based, mouse
[7] = Example 3, CIA mouse joint tissue, Xeljanz 10 mg/kg oral once/day
[8] = LPS 1 ug/ml, 0.5, 1, 10, 100 uM

SMILES	ELISA values in Arthritis Paw, IL-1β, Mean [1]	ELISA values in Arthritis Paw, IL-6, Mean [1]	ELISA values in Arthritis Paw, IL-17, Mean [1]	ELISA values in Arthritis Paw, TNF-α, Mean [1]	MCP-1, ELISA values in Arthritis Paw (pg/mL) Mean [1, 7]	MIP-2, ELISA values in Arthritis Paw (pg/mL) Mean [1, 7]	ELISA values in Serum, IL-6, Mean [2]	phosphorylation of MAPK increased by LPS ([3]; 200 or 500 ug/ml of naltrexone, Western blotting)	phosphorylation of MAPKs (ERK1/2, JNK, p38) increased by LPS ([3]; LPS 1 ug/ml, 0.5, 1, 10, 100 uM, 30 minutes, naltrexone effect at 1 uM)	cytokine inhibitory activity, naltrexone compared with 6β-naltrexol [4, 8]	expression of cytokines (iNOS, IL-1β, IL-6, TNF-α) induced by LPS [4, 8]	expression of pro-inflammatory cytokines (TNF-α, IL-1β, IL-6, IL-17, iNOS) increased by LPS ([4]; LPS 1 ug/ml, naltrexone 200 or 500 ug/ml)	binding to MD2 (surface plasmon resonance) [5]	p65 NF-κB phosphorylation increased by LPS ([6]; LPS 1 ug/ml, 0.5, 1, 10, 100 uM, 30 minutes)	phosphorylation of p65 NF-κB increased by LPS ([6]; from a concentration of 500 ug/ml of naltrexone (100, 200, 500, 1000 ug/ml tested), Western blotting)	IL-17 protein in arthritis tissue [1, 7]	TNF-α protein in arthritis tissue [1, 7]
CN(Cc1cnc2nc(N)nc(N)c2n1)c1ccc(C(=O)N[C@@H](CCC(=O)O)C(=O)O)cc1 [Methotrexate, methotrexate]	1.05 pg/mL	1.8 pg/mL	2.269 pg/mL	6.54 pg/mL	76.1 pg/mL	4.4 pg/mL	39.6 pg/mL										
O=C1CC[C@@]2(O)[C@H]3Cc4ccc(O)c5c4[C@@]2(CCN3CC2CC2)[C@H]1O5 [Naltrexone, 17-(cyclopropylmethyl)-4,5α-epoxy-3,14-dihydroxymorphinan-6-one]								decreased	inhibited	superior cytokine inhibitory activity than the metabolite 6β-naltrexol	suppressed at all concentrations	significantly inhibited	binds to the MD2 protein	inhibited	inhibits the activity of NF-κB		
C[C@@H]1CCN(C(=O)CC#N)C[C@@H]1N(C)c1ncnc2[nH]ccc12 [Xeljanz ®, Tofacitinib]	12.68 pg/mL	88.6 pg/mL	4.57 pg/mL	24.52 pg/mL	207.9 pg/mL	126.8 pg/mL	94.5 pg/mL									4.57 pg/mL	24.52 pg/mL
